Results: paper PMC11191877, “Discovery of new Schiff bases of the disalicylic acid scaffold as DNA gyrase and topoisomerase IV inhibitors endowed with antibacterial properties” (Frontiers in Chemistry, 2024)
≈ marks a conversion by molar mass, not a printed value.

Key:
Pseudomonas aeruginosa [1] = test: MIC, twofold serial dilution, 96-well microtiter plate; assay type: cell-based; conditions: Pseudomonas aeruginosa (G−)
Method: (§1) The antibacterial activity of compounds 5f, 5h, 5i, and 5k were evaluated using a twofold serial dilution method ([Parasa et al., 2011]), with ciprofloxacin as the reference compound. The MIC values for certain compounds were obtained through dose-response experiments. The stated values are based on a minimum of two independent experiments, with three replicates per concentration in each experiment. The experimental details can be found in Appendix A (Supplementary Material). […]
(§2) 4.2.2. Minimum inhibitory concentration assay
(§3) In 96-well microtiter plates and […] of fresh bacterial culture of a single McFarland unit overnight, a double serial dilution of each compound […] in sterile standard saline were prepared to every single source well. Ciprofloxacin antibiotic (5 mg / mL - 1) and normal saline were included as standard reference in each assay. The plates were incubated at 37 0C overnight. As an indicator of bacterial growth, […] of p-iodonitrotetrazolium violet (INT) was added to each well and incubated at 37 0C for 30 […]
(§4) min. MIC values are recorded as the lowest concentration of the extract that completely inhibited bacterial growth that is clear well. The colorless tetrazolidium salt acts as an electron accepter and is reduced to a red colored formazan product by biological activity organisms. Where bacterial growth was inhibited, the solution in the well remained clear after incubation with INT. […]
(§5) SybrGOLD in T10 buffer (10 mM Tris HCl with pH 8.0 and 1 mM EDTA) was added. […]

Staphylococcus aureus = test: as above; assay type: cell-based; conditions: Staphylococcus aureus (G+)
Method: as §1, §2, §3, §4, §5

Bacillus subtilis [2] = test: as above; assay type: cell-based; conditions: Bacillus subtilis (G+)
Method: as §1, §2, §3, §4, §5

Escherichia Coli [3] = test: as above; assay type: cell-based; conditions: Escherichia coli (G−)
Method: as §1, §2, §3, §4, §5

E. coli topoisomerase IV = target: T1, E. coli topoisomerase IV (Escherichia coli, UniProt P20083); test: E. coli topoisomerase IV inhibitory assay (Inspiralis kit); assay type: biochemical; conditions: at 1 µM of the compound
T1 construct: purchased Inspiralis
T1 sequence (P20083 whole entry): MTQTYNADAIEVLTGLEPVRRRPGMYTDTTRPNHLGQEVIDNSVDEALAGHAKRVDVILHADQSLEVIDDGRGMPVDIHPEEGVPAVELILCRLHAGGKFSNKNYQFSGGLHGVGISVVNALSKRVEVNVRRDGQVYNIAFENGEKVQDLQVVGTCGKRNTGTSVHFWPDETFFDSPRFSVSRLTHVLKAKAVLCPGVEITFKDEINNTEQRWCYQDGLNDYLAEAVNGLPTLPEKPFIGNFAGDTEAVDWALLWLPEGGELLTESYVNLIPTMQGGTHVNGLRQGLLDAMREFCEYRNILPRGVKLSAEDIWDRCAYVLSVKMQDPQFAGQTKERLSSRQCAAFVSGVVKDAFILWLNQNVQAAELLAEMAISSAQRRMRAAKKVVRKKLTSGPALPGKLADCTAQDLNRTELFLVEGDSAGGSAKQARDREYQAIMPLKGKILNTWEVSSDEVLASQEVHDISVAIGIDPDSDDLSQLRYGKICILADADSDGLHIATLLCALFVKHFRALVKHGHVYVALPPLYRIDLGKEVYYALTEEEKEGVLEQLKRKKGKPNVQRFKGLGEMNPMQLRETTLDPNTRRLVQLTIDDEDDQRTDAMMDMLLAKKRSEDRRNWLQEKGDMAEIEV
T1 sequence (P0AFI2 whole entry, further chain): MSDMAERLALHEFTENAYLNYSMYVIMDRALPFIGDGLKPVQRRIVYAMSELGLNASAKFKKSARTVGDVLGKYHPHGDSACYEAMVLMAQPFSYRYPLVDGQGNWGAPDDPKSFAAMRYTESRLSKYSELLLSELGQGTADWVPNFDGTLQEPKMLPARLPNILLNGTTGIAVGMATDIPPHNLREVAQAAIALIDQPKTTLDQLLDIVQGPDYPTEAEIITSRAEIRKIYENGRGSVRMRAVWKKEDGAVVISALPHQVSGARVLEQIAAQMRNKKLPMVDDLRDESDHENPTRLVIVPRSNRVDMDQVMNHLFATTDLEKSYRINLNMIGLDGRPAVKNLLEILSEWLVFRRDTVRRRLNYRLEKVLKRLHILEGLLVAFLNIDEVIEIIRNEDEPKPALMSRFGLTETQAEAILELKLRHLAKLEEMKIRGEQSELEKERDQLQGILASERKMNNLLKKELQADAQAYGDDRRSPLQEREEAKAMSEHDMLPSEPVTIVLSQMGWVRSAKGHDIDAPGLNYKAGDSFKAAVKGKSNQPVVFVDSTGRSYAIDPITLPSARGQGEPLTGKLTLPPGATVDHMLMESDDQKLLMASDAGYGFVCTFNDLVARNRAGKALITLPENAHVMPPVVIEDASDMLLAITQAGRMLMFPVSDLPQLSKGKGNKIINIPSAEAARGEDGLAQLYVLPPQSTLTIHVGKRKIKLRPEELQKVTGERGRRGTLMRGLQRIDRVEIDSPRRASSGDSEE
Method: (§6) NaCl and 50 mM MgCl2) was added to terminate the enzymatic reaction. After
(§7) Initial screening was done at 100 or 10 μM concentration
A single compound was designated with four wells followed by incubation of
After incubation, medium was removed completely from the […]

Staph. aureus = test: Modified Kirby-Bauer disc diffusion; assay type: cell-based, Staphylococcus aureus; conditions: Staph. aureus (G+)
Method: (§8) The antimicrobial activity of compounds 5a-k was assessed using a modified Kirby-Bauer disc diffusion method ([Alkhaldi et al., 2019]; [Al-Wahaibi et al., 2021b]; [Manso et al., 2021]; [Ecevit et al., 2022]). […] Ciprofloxacin was used as a reference medication. […] Compounds 5f-k had promising antibacterial action against Gram-positive and Gram-negative bacteria, ranging from 75% to 115% of typical ciprofloxacin levels. […]
(§9) incubated at 35-37 °C for 24-48 hours and yeast as Candida albicans (ATCC 7102) incubated at 30 °C for 24-48 hours and, then the diameters of the inhibition zones were measured in millimeters. Standard discs of ciprofloxacin (Antibacterial agent), Fluconazole (Antifungal agent) served as positive controls for antimicrobial activity but filter discs impregnated with 10 µl of solvent (distilled water, chloroform, DMSO) were used as a negative control. Blank paper disks (Schleicher & Schuell, Spain) with a diameter of 8.0 mm were impregnated 10µ of tested concentration of the stock solutions. When a filter paper disc impregnated with a tested chemical is placed on agar the chemical will diffuse from the disc into the agar. This diffusion will place the chemical in the agar only around the disc. The solubility of the chemical and its molecular size will determine the size of the area of chemical infiltration around the disc. If an organism is placed on the agar it will not grow in the area around the disc if it is susceptible to the chemical. This area of no growth around the disc is known as a “Zone of inhibition” or" Clear zone". For the disc diffusion, the zone diameters were measured with slipping calipers of the National Committee for Clinical Laboratory […]
(§10) Agar-based methods such as E-test and disk diffusion can be good alternatives because they are simpler and faster than broth-based methods. […]

Aspergillus flavus = test: Modified Kirby-Bauer disc diffusion (antifungal); assay type: cell-based; conditions: Aspergillus flavus (fungi)
Method: (§11) The antimicrobial activity of compounds 5a-k was assessed using a modified Kirby-Bauer disc diffusion method ([Alkhaldi et al., 2019]; [Al-Wahaibi et al., 2021b]; [Manso et al., 2021]; [Ecevit et al., 2022]). […] Ciprofloxacin was used as a reference medication. […] Compounds 5f-k had promising antibacterial action against Gram-positive and Gram-negative bacteria, ranging from 75% to 115% of typical ciprofloxacin levels.
(§12) In addition, the synthesized compounds 5a-k were evaluated for their antifungal activity against A. flavus and C. albicans, with Fluconazole as a reference medication (Table 1). […]
Standard discs of ciprofloxacin (Antibacterial agent), Fluconazole (Antifungal agent) served as positive controls for antimicrobial activity but filter discs impregnated with 10 µl of solvent (distilled water, chloroform, DMSO) were used as a negative control. Blank paper disks (Schleicher & Schuell, Spain) with a diameter of 8.0 mm were impregnated 10µ of tested concentration of the stock solutions. When a filter paper disc impregnated with a tested chemical is placed on agar the chemical will diffuse from the disc into the agar. This diffusion will place the chemical in the agar only around the disc. The solubility of the chemical and its molecular size will determine the size of the area of chemical infiltration around the disc. If an organism is placed on the agar it will not grow in the area around the disc if it is susceptible to the chemical. This area of no growth around the disc is known as a “Zone of inhibition” or" Clear zone". For the disc diffusion, the zone diameters were measured with slipping calipers of the National Committee for Clinical Laboratory […]
as §10

Candida albicans = test: Modified Kirby-Bauer disc diffusion (antifungal); assay type: cell-based
Method: as §11, §12, §9, §10

E. coli DNA gyrase = target: T2, E. coli DNA gyrase (Escherichia coli, UniProt P0AES6); test: E. coli DNA gyrase supercoiling assay (Inspiralis kit); assay type: biochemical; conditions: at 1 µM of the compound
T2 construct: purchased Inspiralis
Method: The fluorescence was measured with a microplate reader (BioTek Synergy H4,
as §6, §7

Pseudomonas aeruginosa [4] = test: Modified Kirby-Bauer disc diffusion; assay type: cell-based; conditions: Pseudomonas aeruginosa (G−)
Method: as §8, §9, §10

Bacillus subtilis [5] = test: Modified Kirby-Bauer disc diffusion; assay type: cell-based; conditions: Bacillus subtilis (G+)
Method: as §8, §9, §10

Escherichia Coli [6] = test: Modified Kirby-Bauer disc diffusion; assay type: cell-based; conditions: Escherichia Coli (G−)
Method: as §8, §9, §10

J774 macrophages = system: J774 macrophages; set-up: method as in Souza et al., 2007; conditions: ref Souza et al., 2007, cited from earlier work
[7] = system: Mycobacterium tuberculosis H37Rv; set-up: method as in Souza et al., 2007; conditions: ref Souza et al., 2007; cited from earlier work

Molecule	Minimum inhibitory concentration (MIC) (Pseudomonas aeruginosa [1]) [µg/mL]	Minimum inhibitory concentration (MIC) (Staphylococcus aureus) [µg/mL]	Minimum inhibitory concentration (MIC) (Bacillus subtilis [2]) [µg/mL]	Minimum inhibitory concentration (MIC) (Escherichia Coli [3]) [µg/mL]	RA (residual activity of the enzyme) E. Coli Topo IV (E. coli topoisomerase IV) [%]	Inhibition zone diameter (Staph. aureus) [mm/mg Sample]	Inhibition zone diameter (Aspergillus flavus) [mm/mg Sample]	activity as % of fluconazole (Candida albicans; C. albicans) [%]	Inhibition zone diameter (Candida albicans; Candida albicans (fungi)) [mm/mg Sample]	RA (residual activity of the enzyme) E. Coli DNA gyrase (E. coli DNA gyrase) [%]	Inhibition zone diameter (Pseudomonas aeruginosa [4]) [mm/mg Sample]	Inhibition zone diameter (Bacillus subtilis [5]) [mm/mg Sample]	Inhibition zone diameter (Escherichia Coli [6]) [mm/mg Sample]	cytotoxic effects on J774 macrophages (J774 macrophages; 1,000 μg/mL)	viable macrophage cells (J774 macrophages; J774 macrophages, 1,000 μg/mL)	MIC [7] [µg/mL]
N'-((E)-4-Methylbenzylidene)-4-(4-(2-((Z)-4-methylbenzylidene)hydrazine-1-carbonyl)-3-hydroxybenzyl)-2-hydroxybenzohydrazide [Compound 5f]	0.125	0.070	0.125	0.125	77	37	0.0	38	15	53	33	37	33			
Oc1ccccc1C=Nc1ccccc1O [I, N-(salicylidene)-2-hydroxyaniline]														did not show cytotoxic effects	Over 80%	8 (≈ 37.5 µM)
